Results reported in article PMC10726475, “Atypical N-Alkyl to N-Noralkoxy Switch in a Dual cSRC/BCR-ABL1 Kinase Inhibitor Improves Drug Efflux and hERG Affinity” (ACS Medicinal Chemistry Letters, 2023).
Where “and” joins values, the source holds several entries; their conditions need not be identical. Equal values may be shown once. Read-outs that look alike come from different tables or passages of the source.

Experiments:
[1] = logD7.4 by shake-flask method; format: physicochemical; settings: pH 7.4
[2] = pKa determination by pH-metric method; format: physicochemical
Procedure: Figure 3 Matched molecular pair (MMP) analysis on the 2-methoxyphenoxy-propyl-N-methylpiperazine scaffold and pKa values of related δ-alkoxy substituted amines. (A) MMP analysis of a bosutinib fragment. All measurements were assayed by Pharmaron Inc., and values presented represent the mean of n = 2 technical replicates, unless otherwise specified. logD7.4 was determined by the shake-flask method. […] (B) Reported[54] pKa values of related dimethylamines highlighting similarities in pKa values of δ-alkoxy substitution patterns. TEXT PRINTED IN THE PICTURE: (A) 17: logD7.4: 0.9; Aq. Sol. (μM): 277; pKa1: 4.2; pKa2: 8.1 | (A) 18: logD7.4: 1.0; Aq. Sol. […]
Inc. using methods previously derscribed.1 […]
Shedlovsky extrapolation for the pH-metric pKa method. […]

[3] = Solubility in aqueous buffer at pH 7.4; format: physicochemical; settings: aqueous buffer at pH 7.4, n = 1; read-out: aq sol.
Caco-2 cells = assay: Caco-2 cell permeability
P-gp (MDR1) = assay: in vitro; settings: dog, MDCK-MDR1
Description: (§1) Abbreviations: Papp, apparent permeability; AP, apical; BL, basolateral.

MDCKII-MDR1 cells [4] = assay: MDCKII-MDR1 cell permeability
Description: as §1

in vitro = settings: human, Caco-2
MDCKII-MDR1 cells [5] = settings: dog, MDCK-MDR1
Description: as §1

[6] = simple hydroxylamine; cited from earlier work
[7] = pH-metric method, range -12, read-out: pKa1

SMILES: O=[N+]([O-])c1ccc2c(c1)Cc1ccccc1-2 [2-Nitrofluorene]
- Count (# of wells) (Salmonella strain TA1535; TA1535+S9, 3.0E-05 M): 0
- Positive Significance (- to +++) (Salmonella strain TA1535; TA1535+S9, 3.0E-05 M): -
- Count (# of wells) (Salmonella strain TA1535; TA1535-S9, 3.0E-05 M): 0
- Positive Significance (- to +++) (Salmonella strain TA1535; TA1535-S9, 3.0E-05 M): -
- Count (# of wells) (Salmonella strain TA100; TA100+S9, 3.0E-05 M): 0
- Positive Significance (- to +++) (Salmonella strain TA100; TA100+S9, 3.0E-05 M): -
- Count (# of wells) (Salmonella strain TA100; TA100-S9, 3.0E-05 M): 2
- Positive Significance (- to +++) (Salmonella strain TA100; TA100-S9, 3.0E-05 M): -
- Count (# of wells) (Salmonella strain TA98; TA98+S9, 3.0E-05 M): 28
- Count (# of wells) (Salmonella strain TA98; TA98-S9, 3.0E-05 M): 30
- Count (# of wells) (Salmonella strain TA1537; TA1537+S9, 3.0E-05 M): 2
- Positive Significance (- to +++) (Salmonella strain TA1537; TA1537+S9, 3.0E-05 M): -
- Count (# of wells) (Salmonella strain TA1537; TA1537-S9, 3.0E-05 M): 6
- Positive Significance (- to +++) (Salmonella strain TA1537; TA1537-S9, 3.0E-05 M): + (weak positive, if P < 0.05)

SMILES: COc1ccccc1OCCCN1CCN(C)CC1 [compound 17]
- logD at 2 h [1]: 0.9
- pKa ([2]; pH 2, pH-metric method, range pH 2-12, read-out: pKa2): 8.1
- pKa [2, 7]: 4.2
- solubility [3]: > 250 µM and 277 µM

SMILES: C[C@H]1O[C@@H](O[C@H]2[C@@H](O)C[C@H](O[C@H]3[C@@H](O)C[C@H](O[C@H]4CC[C@@]5(C)[C@H](CC[C@@H]6[C@@H]5C[C@@H](O)[C@]5(C)[C@@H](C7=CC(=O)OC7)CC[C@]65O)C4)O[C@@H]3C)O[C@@H]2C)C[C@H](O)[C@@H]1O [Digoxin]
- Recovery% (BL-AP) (Caco-2 cells): 101.40%
- Papp A→B at 2 h, 1 μM (P-gp (MDR1)): 0.26 ×10⁻⁶ cm/s
- Papp B→A at 2 h, 1 μM (P-gp (MDR1)): 10.2 ×10⁻⁶ cm/s
- efflux ratio at 2 h, 1 μM (P-gp (MDR1)): 38.6
- recovery (P-gp (MDR1)): 96.3%
- Recovery% (BL-AP) (MDCKII-MDR1 cells [4]): 92.45%
- Papp A→B at 2 h, 5 μM (in vitro): 0.34 ×10⁻⁶ cm/s
- Papp B→A at 2 h, 5 μM (in vitro): 15.6 ×10⁻⁶ cm/s
- efflux ratio at 2 h, 5 μM (in vitro): 45.6
- recovery (in vitro): 103%

SMILES: COc1ccccc1OCCON1CCN(C)CC1 [compound 18]
- logD at 2 h [1]: 1
- pKa [2, 7]: 7.4
- ΔpKa ([2]; terminal N-methylamine of 18 relative to 17): −0.7
- solubility [3]: > 250 µM and 287 µM

SMILES: COCCc1ccc(OCC(O)CNC(C)C)cc1 (stereo not drawn) [Metoprolol]
- Recovery% (BL-AP) (MDCKII-MDR1 cells [5]): 96.11%
- Recovery% (BL-AP) (Caco-2 cells): 100.41%
- Papp A→B at 2 h, 1 μM (P-gp (MDR1)): 27.9 ×10⁻⁶ cm/s
- Papp B→A at 2 h, 1 μM (P-gp (MDR1)): 31 ×10⁻⁶ cm/s
- efflux ratio at 2 h, 1 μM (P-gp (MDR1)): 1.11
- recovery (P-gp (MDR1)): 99.9%
- Papp A→B at 2 h, 5 μM (in vitro): 23.1 ×10⁻⁶ cm/s
- Papp B→A at 2 h, 5 μM (in vitro): 21.8 ×10⁻⁶ cm/s
- efflux ratio at 2 h, 5 μM (in vitro): 0.95
- recovery (in vitro): 106%

SMILES: Nc1c2ccccc2nc2ccccc12 [9-Aminoacridine]
- Count (# of wells) (Salmonella strain TA1535; TA1535+S9, 1.0E-05 M): 1
- Positive Significance (- to +++) (Salmonella strain TA1535; TA1535+S9, 1.0E-05 M): -
- Count (# of wells) (Salmonella strain TA1535; TA1535-S9, 1.0E-05 M): 0
- Positive Significance (- to +++) (Salmonella strain TA1535; TA1535-S9, 1.0E-05 M): -
- Count (# of wells) (Salmonella strain TA100; TA100+S9, 1.0E-05 M): 2
- Positive Significance (- to +++) (Salmonella strain TA100; TA100+S9, 1.0E-05 M): -
- Count (# of wells) (Salmonella strain TA100; TA100-S9, 1.0E-05 M): 0
- Positive Significance (- to +++) (Salmonella strain TA100; TA100-S9, 1.0E-05 M): -
- Count (# of wells) (Salmonella strain TA98; TA98+S9, 1.0E-05 M): 1
- Positive Significance (- to +++) (Salmonella strain TA98; TA98+S9, 1.0E-05 M): -
- Count (# of wells) (Salmonella strain TA98; TA98-S9, 1.0E-05 M): 2
- Positive Significance (- to +++) (Salmonella strain TA98; TA98-S9, 1.0E-05 M): -
- Count (# of wells) (Salmonella strain TA1537; TA1537+S9, 1.0E-05 M): 31
- Count (# of wells) (Salmonella strain TA1537; TA1537-S9, 1.0E-05 M): 25

SMILES: NO [hydroxylamine]
- pKa [6]: 5.9
